Data taken from ChEMBL document CHEMBL5465560, “Selectivity Literature for EUbOPEN Chemogenomic Library” (2024).

Columns and labels:
[1] = target: T1, Serine/threonine-protein kinase Nek1 (Homo sapiens) (UniProt Q96PY6); assay: Selectivity interaction (Kinase panel (KiNativ target engagement assay in Jurkat cells)) EUB0001635a NEK1; assay type: cell-based; conditions: at 1 µM
T1 sequence (whole entry): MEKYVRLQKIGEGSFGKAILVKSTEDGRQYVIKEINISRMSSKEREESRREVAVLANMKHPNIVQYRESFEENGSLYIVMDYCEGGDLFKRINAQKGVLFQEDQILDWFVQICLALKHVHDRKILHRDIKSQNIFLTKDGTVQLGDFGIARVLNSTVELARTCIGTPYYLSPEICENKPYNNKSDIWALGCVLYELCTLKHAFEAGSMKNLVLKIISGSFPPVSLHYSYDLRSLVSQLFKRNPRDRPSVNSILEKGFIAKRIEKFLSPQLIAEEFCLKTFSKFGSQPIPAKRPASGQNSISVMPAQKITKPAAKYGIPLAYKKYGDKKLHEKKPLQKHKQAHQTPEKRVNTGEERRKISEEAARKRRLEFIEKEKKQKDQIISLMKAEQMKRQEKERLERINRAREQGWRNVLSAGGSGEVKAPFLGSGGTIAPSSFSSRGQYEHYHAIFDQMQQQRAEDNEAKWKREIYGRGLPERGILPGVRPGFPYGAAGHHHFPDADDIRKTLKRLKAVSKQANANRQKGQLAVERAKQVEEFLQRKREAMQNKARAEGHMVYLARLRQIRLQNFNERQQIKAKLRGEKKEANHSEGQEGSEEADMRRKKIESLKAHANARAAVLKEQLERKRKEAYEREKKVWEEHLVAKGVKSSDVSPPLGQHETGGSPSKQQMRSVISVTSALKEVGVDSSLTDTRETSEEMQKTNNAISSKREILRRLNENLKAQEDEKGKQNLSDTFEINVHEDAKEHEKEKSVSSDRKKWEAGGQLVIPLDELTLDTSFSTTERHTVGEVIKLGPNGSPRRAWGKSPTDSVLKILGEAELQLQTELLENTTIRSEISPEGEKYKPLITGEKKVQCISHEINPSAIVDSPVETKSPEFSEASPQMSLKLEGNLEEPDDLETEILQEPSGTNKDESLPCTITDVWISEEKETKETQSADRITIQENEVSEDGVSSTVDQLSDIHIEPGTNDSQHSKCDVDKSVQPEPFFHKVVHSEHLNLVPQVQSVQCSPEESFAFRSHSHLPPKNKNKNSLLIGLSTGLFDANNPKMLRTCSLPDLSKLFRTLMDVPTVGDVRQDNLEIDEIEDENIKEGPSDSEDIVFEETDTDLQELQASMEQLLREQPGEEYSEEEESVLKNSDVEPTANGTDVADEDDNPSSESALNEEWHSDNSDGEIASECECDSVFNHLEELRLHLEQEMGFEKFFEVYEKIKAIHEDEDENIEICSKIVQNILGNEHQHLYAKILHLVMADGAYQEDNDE

Ephrin type-A receptor 4 = Ephrin type-A receptor 4 (Homo sapiens, UniProt P54764); assay: Selectivity interaction (Kinase panel (33PanQinase(R) Activity Assay)) EUB0000877a EPHA4
Sequence of Ephrin type-A receptor 4 (P54764 whole entry): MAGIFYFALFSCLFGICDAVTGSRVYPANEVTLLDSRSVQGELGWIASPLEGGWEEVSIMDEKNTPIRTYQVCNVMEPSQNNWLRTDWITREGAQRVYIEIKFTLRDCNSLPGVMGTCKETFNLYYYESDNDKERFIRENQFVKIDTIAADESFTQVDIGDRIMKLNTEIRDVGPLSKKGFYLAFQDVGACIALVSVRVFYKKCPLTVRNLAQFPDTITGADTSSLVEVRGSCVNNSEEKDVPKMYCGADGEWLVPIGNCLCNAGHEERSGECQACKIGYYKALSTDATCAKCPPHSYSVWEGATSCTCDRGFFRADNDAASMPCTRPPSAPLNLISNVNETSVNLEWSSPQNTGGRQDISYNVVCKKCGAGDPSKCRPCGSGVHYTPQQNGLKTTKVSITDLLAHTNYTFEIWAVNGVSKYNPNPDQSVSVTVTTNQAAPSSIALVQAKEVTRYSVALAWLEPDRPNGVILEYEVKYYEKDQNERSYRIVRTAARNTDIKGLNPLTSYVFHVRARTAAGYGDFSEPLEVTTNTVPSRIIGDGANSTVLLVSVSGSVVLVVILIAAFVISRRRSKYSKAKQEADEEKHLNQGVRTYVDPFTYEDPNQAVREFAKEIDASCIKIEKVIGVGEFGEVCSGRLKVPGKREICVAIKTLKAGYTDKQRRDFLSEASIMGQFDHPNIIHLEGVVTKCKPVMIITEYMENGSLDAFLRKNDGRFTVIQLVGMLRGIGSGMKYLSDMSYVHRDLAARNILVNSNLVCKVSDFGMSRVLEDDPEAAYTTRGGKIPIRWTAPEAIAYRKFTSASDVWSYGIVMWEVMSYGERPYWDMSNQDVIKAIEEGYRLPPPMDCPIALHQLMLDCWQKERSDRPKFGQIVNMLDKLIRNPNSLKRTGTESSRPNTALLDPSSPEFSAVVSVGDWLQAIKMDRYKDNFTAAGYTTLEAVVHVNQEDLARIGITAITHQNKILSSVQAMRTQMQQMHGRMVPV

[2] = target: Mitogen-activated protein kinase 1 (Homo sapiens, UniProt P28482); assay: Selectivity interaction (ActivX KiNativ screen (kinase selectivity in THP-1 cell lysates)) EUB0000639a MAPK1; assay type: subcellular; conditions: lysate, at 5 µM
Sequence of Mitogen-activated protein kinase 1 (P28482 whole entry): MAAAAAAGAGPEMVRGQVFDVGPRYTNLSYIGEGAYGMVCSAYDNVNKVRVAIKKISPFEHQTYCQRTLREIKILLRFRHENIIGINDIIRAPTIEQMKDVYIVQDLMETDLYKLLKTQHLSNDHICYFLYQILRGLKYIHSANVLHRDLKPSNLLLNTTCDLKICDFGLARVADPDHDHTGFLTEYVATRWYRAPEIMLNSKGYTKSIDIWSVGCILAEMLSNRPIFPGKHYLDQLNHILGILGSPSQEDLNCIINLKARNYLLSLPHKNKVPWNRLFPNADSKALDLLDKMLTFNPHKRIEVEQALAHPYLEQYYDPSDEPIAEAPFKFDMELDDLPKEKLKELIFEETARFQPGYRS

[3] = target: T2, Dual specificity mitogen-activated protein kinase kinase 6 (Homo sapiens) (UniProt P52564); assay: Selectivity interaction (SelectScreen profiling (Invitrogen)) EUB0000607a MAP2K6; conditions: at 2 µM
T2 sequence (whole entry): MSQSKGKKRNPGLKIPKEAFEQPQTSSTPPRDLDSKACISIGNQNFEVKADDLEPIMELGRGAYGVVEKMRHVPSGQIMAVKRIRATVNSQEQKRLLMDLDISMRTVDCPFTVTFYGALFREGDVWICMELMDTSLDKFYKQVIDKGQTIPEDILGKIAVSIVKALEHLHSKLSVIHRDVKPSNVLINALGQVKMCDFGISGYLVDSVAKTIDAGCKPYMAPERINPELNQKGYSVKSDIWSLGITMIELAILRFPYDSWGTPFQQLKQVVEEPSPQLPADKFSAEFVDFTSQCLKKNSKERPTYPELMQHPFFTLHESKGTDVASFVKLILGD

[4] = target: T3, cGMP-dependent protein kinase 2 (Homo sapiens) (UniProt Q13237); assay: Selectivity interaction (Ambit KINOMEscan and KiNATiv profiling in Jurkat cells) EUB0000090b PRKG2; assay type: cell-based; conditions: at 1 µM
T3 sequence (whole entry): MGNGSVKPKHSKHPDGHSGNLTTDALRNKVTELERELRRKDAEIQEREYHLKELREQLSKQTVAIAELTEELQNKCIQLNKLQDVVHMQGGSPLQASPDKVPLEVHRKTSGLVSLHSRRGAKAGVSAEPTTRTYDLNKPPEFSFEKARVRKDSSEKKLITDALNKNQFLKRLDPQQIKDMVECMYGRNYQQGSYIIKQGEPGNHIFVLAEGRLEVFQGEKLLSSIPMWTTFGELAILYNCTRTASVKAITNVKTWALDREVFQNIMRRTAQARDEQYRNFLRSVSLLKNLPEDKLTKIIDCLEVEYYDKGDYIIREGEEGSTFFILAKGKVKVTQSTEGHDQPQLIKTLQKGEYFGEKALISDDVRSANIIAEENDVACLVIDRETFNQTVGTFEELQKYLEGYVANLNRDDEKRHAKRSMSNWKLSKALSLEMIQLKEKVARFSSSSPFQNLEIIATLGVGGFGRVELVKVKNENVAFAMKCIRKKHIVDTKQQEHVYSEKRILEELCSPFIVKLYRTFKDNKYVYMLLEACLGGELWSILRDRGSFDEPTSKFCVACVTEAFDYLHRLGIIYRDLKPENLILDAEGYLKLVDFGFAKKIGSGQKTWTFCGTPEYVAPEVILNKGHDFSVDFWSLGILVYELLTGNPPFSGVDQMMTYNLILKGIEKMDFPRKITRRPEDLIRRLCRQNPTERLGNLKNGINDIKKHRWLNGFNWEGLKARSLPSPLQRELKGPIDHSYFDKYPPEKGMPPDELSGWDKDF

Question: For C=CC(=O)Nc1ccc(C(=O)Nc2[nH]nc3c2CN(C(=O)N[C@H](CN(C)C)c2ccccc2)C3(C)C)cc1, which % of engagement [1] is on record?
Answer: The % of engagement was -2.5%.

Question: For CCC(=O)N1CC[C@H](Nc2ncnc3c2CN(c2cnc(OC)c(C(F)(F)F)c2)CC3)C1 [LENIOLISIB], which IC50 (Ephrin type-A receptor 4) is on record?
Answer: Its IC50 is over 10 µM.

Question: Which % of inhibition [2] does the source give for CC[C@@H]1[C@H](F)C(=O)N[C@@H]1COc1nccc2cc(C(N)=O)c(OC)cc12 [ZIMLOVISERTIB] here?
Answer: Its % of inhibition is 25.2%.

Question: Which % of inhibition [3] does the source give for CNC(=O)Nc1ccc(-c2nc(N3CC4CCC(C3)O4)c3cnn(C4CCC5(CC4)OCCO5)c3n2)cc1 here?
Answer: Its % of inhibition is 8%.

Question: With CN(C)C/C=C/C(=O)Nc1ccc(C(=O)N2CCCC(Nc3ncc(Cl)c(-c4c[nH]c5ccccc45)n3)C2)cc1 (stereo not given) as the compound, how does the % of control [4] read?
Answer: Its % of control is 95%.
